We go through four compounds from patent US4745185A, “D-arabinose-1,5-diphosphate salts and methods for the treatment of diabetes” (McNeilab, Inc., priority 1985, dated 1988).

Assay [1] concerns the target T1, 6-phosphofructo-1-kinase (Rattus norvegicus, UniProt P30835).
T1 construct: from tissue; host or cells: rat liver
T1 sequence (P30835 2-780 limits assumed): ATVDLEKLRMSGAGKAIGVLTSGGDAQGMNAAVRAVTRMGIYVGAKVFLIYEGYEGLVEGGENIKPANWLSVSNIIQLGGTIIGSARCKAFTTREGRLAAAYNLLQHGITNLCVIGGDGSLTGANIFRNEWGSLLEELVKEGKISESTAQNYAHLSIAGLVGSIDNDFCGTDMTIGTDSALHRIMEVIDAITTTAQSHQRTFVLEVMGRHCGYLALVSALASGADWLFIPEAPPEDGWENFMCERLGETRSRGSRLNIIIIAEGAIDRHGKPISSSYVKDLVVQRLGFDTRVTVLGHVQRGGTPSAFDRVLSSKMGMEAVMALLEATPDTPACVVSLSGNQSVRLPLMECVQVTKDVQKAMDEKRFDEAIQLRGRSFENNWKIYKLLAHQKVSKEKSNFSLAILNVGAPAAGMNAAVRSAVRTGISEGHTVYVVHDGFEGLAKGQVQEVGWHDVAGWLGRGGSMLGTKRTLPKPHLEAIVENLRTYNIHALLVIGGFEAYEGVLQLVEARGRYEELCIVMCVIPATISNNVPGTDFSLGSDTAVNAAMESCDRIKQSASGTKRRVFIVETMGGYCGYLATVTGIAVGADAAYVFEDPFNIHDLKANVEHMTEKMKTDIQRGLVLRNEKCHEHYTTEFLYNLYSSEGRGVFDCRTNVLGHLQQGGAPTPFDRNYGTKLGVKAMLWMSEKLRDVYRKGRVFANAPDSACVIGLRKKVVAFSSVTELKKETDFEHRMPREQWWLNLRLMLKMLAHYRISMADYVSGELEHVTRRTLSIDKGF
Briefly: Allosteric activation of rat liver 6-phosphofructo-1-kinase. In kind it is biochemical. Particulars: rat liver enzyme, in vitro; read-out: half-maximal concentration, allosteric activation. The source says:
(§1) The utility of compounds of the invention of formula (I) as hypoglycemic agents may be determined by measurement of Ki values as competitive inhibitors of rat liver fructose-1,6-biphosphatase and by measurement of half-maximal concentrations as allosteric activators of rat liver 6-phosphofructo-1-kinase, both of these tests being in vitro. An in vivo test for the activity of compounds of the invention is the Epinephrine-Induced Hyperglycemic Model (EIHM). In the EIHM, male Sprague-Dawley rats from Charles River Laboratories, average weight 200-280 grams, maintained on Lab-Blox® rat chow (Wayne) and provided water ad libitum were used throughout all studies; rats were fasted 18-24 hours prior to treatment with epinephrine (0.2 mg/kg i.p.) which was given intraperitoneally. Drug or vehicle were given 30 minutes prior to epinephrine. Blood samples were taken from the tail vein for measurement of glucose changes prior to and at 45 and 90 minutes after administration of epinephrine bitartrate (Sigma Co., St. Louis, MO). Blood glucose was determined using Autoflo Glucose (Bio-Dyanamics/bmc, Indianapolis, IN).
2. Allosteric activation of rat liver 6-phosphofructo-1-kinase
reported as half-maximal concentrations; methodology as described by S. J. Pilkis, et al. in The Journal of Biol. Chem., Vol. 256, pp. 3171 (1981).

Assay [2] deals with T2, fructose-1,6-biphosphatase (Rattus norvegicus, UniProt P19112).
T2 construct: from tissue; host or cells: rat liver
T2 sequence (P19112 2-363 limits assumed): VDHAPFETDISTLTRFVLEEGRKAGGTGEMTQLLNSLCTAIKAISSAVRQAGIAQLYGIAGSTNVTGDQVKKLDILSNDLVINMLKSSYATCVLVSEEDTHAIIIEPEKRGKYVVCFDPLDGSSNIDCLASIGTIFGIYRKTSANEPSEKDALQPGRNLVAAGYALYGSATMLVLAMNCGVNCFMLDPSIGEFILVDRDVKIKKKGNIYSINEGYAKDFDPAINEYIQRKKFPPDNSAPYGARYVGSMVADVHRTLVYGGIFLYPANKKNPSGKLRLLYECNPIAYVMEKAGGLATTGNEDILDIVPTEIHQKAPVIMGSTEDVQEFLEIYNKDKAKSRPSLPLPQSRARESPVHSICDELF
Briefly: Rat liver fructose-1,6-biphosphatase inhibition. The class given is biochemical. Conditions: competitive inhibitors; rat liver enzyme, in vitro.
Excerpt: as §1
1. Rat liver fructose-1,6-biphosphatase inhibition*:
*Methodology as described by S. J. Benkovic, et al. in Biochemistry, Vol. 10, No. 26, pp. 4881-4887 (1971).

The next assay relates to blood glucose. Briefly: Epinephrine-Induced Hyperglycemic Model (EIHM), in vivo. On the set-up: species or system male Sprague-Dawley rats. Conditions: for maximum % lowering (blood glucose): 100 mg/kg i.p., given 30 minutes prior to epinephrine (0.2 mg/kg i.p.), fasted rats, glucose at 45 and 90 minutes.
Excerpt: as §1
**reported as maximum % lowering; methodology as described by G. F. Tutwiler in Biochemical Medicine, Vol. 22, pp. 204 (1979).

The subject of assay [3] is fructose-1,6-biphosphatase. Particulars: cited from earlier work.
In assay [4] the test system is 6-phosphofructo-1-kinase. Conditions: cited from earlier work.

On to `O=P(O)(O)OC[C@H]1O[C@@H](OP(=O)(O)O)[C@@H](O)[C@@H]1O` [Example 1d, β-D-Arabinose-1,5-diphosphate], for which the EC50 on 6-phosphofructo-1-kinase [1] was 1000 nM. The compound also registered a Ki in assay [2] of 3400 nM. Also, the “maximum % lowering (blood glucose)” value in the assay with blood glucose is 85%.
On to `O=P(O)(O)OC[C@H]1O[C@@](CO)(OP(=O)(O)O)[C@@H](O)[C@@H]1O` [Compound (A), β-D-fructose-2,6-diphosphate, reference compound], for which, in assay [3], the “inhibition of fructose-1,6-biphosphatase (in words)” value was “deactivates gluconeogenesis by inhibiting fructose-1,6-biphosphatase”. Besides, at 6-phosphofructo-1-kinase [1], the EC50 came out at 50 nM. In assay [2], this compound had a Ki of 100 to 200 nM. For the same compound, the “maximum % lowering (blood glucose)” value in the assay with blood glucose came out at 0%. In the assay with 6-phosphofructo-1-kinase [4], the “stimulation of 6-phosphofructo-1-kinase (in words)” value was “activates glycolysis by stimulating 6-phosphofructo-1-kinase”.
`NC1CCCCC1` [cyclohexylamine]: the “part of the drug effect due to the cyclohexylamine base” value in the assay with blood glucose (cyclohexylamine base used to crystallize Example 1d, Example 1d at 100 mg/kg i.p.) was “approximately one-half of the drug effect”.
For the compound `O=P(O)(O)OC[C@H]1O[C@H](OP(=O)(O)O)[C@@H](O)[C@@H]1O` [Example 2b, α-D-Arabinose-1,5-diphosphate], the EC50 at 6-phosphofructo-1-kinase [1] turned out to be 500 nM. Besides, in assay [2], the inhibitory constant (Ki) was 30000 to 40000 nM.

The term Ki denotes the dissociation constant of the complex between target and ligand, obtained from inhibition or displacement.
